Assay results taken from patent publication US7704986B2, “Vitamin D3 analogues for the prevention and treatment of bone disorders” (K.U. Leuven Research and Development, priority 2004, dated 2010).

How the values were obtained:
NMRI mice = test: In vivo activity: serum and femur calcium after 7 daily i.p. injections; conditions: for Serum calcium vs. control (%) / femur calcium vs. control (%): 7 days
Experimental: Eight weeks old, male NMRI mice were fed a vitamin D-replete diet (0.2% calcium, 1% phosphate, 2000 U vitamin D/kg; Hope Farms, Woerden, The Netherlands). Groups of six mice were intraperitoneally injected daily during 7 consecutive days with different doses of 1,25(OH)2D3 (0.2 and 0.4 μg/kg/day) or analogues. The control group was injected with vehicle (arachis oil). The average weight of each group of 6 mice was determined at the beginning and at the end of the experiment. The following parameters were evaluated: serum calcium and femur calcium. Serum calcium was measured by a microcolorimetric assay (Sigma, St. Louis, Mo.). Femurs were removed and femur calcium content was measured in HCl-dissolved bone ash (obtained by heating for 24 hours in an oven at 100° C.), using the same technique as for serum calcium. Student's t-tests were carried out to detect significant differences; p<0.05 was accepted as significant. […]

[1] = biological target: T1, human vitamin D binding protein (hDBP) (Homo sapiens, UniProt P02774); test: Affinity for human vitamin D binding protein; conditions: hDBP 0.18 μM, 4° C. 3 hours; 1,25(OH)2D3 = 100
T1 sequence (P02774 17-474): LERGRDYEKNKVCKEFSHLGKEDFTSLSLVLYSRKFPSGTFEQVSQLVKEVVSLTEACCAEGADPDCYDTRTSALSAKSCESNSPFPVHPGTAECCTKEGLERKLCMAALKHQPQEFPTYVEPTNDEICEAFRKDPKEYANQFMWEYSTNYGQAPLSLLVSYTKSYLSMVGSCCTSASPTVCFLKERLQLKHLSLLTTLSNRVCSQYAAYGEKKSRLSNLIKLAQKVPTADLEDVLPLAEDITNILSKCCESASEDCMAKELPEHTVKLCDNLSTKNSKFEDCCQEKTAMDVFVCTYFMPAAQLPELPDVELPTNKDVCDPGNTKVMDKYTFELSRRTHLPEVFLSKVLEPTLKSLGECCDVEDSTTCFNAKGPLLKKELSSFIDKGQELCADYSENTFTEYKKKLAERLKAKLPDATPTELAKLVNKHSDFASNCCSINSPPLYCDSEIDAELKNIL
Experimental: Binding of 1α,25(OH)2D3 analogues to hDBP was performed at 4° C. […] Phase separation was then obtained by the addition of 0.5 ml of cold dextran-coated charcoal.

vitamin D receptor (VDR) = biological target: T2, vitamin D receptor (VDR) (Sus scrofa, UniProt A3RGC1); test: Affinity for vitamin D receptor: competition with [3H]1α,25(OH)2D3; assay type: binding; conditions: pig intestinal mucosa supernatant, 4° C. 20 hours; 1α,25(OH)2D3 = 100%
T2 construct: high speed supernatant from intestinal mucosa homogenates obtained from normal pigs; from tissue; host or cells: pig intestinal mucosa (high speed supernatant of homogenate)
T2 sequence (A3RGC1 1-427): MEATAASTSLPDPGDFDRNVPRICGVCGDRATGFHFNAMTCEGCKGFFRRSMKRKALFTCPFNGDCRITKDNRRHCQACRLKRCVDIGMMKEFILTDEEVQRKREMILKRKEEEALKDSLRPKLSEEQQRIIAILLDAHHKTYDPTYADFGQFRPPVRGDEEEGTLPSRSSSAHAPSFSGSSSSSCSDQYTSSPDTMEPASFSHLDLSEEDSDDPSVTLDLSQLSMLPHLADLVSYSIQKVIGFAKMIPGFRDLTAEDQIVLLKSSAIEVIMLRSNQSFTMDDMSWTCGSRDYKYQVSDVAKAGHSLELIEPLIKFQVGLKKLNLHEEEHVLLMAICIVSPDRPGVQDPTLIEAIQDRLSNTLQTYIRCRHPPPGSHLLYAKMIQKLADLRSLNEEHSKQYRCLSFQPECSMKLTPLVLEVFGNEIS
Experimental: The methods used herein to evaluate the binding properties of vitamin D analogues are state of the art techniques used for steroid hormone (including vitamin D) binding assays. […] Incubation was performed at 4° C. for 20 hours and phase separation was obtained by addition of dextran-coated charcoal.

[2] = Table 6, dose 0.4 μg/kg/day, * in cell = p < 0.05
[3] = dose 0.2 μg/kg/d i.p., * in cell = P < 0.05
[4] = dose 0.4 μg/kg/d i.p., * in cell = P < 0.05

SMILES	DBP (relative affinity) [1]	VDR (relative affinity) (vitamin D receptor (VDR))	Serum calcium vs. control (%) (NMRI mice; [3])	femur calcium vs. control (%) (NMRI mice; [3])	Serum calcium vs. control (%) (NMRI mice; [4])	femur calcium vs. control (%) (NMRI mice; [4])	other results
CC(C)[C@H](O)CC[C@H](C)[C@@]1(C)CC[C@@H](/C=C/C=C2C[C@@H](O)C[C@H](O)C2)C1(C)C (stereo in doubt) [example 19, (1R,3R)-5-{(E)-3-[(S)-3-((S)-4-hydroxy-1-(S)-methyl-5-methyl-hexyl)-2,2,3-trimethyl-cyclopentyl]-allylidene}-cyclohexane-1,3-diol]	4%	3%	–	–	–	–	Serum calcium vs. control (%) (NMRI mice; dose 5 μg/kg/d i.p.): 100%; femur calcium vs. control (%) (NMRI mice; dose 5 μg/kg/d i.p., * in cell = P < 0.05): 115* %
C=C1/C(=C\C=C2/CCC[C@]3(C)[C@@H]([C@H](C)CCCC(C)(C)O)CC[C@@H]23)C[C@@H](O)C[C@@H]1O [1,25(OH)2D3, Calcitriol, reference compound]	–	–	121* %	97%	136* %	94* %	Femur calcium versus control (%) (NMRI mice; Table 6, dose 0.2 μg/kg/day): 97%; Serum calcium versus control (%) (NMRI mice; Table 6, dose 0.2 μg/kg/day, * in cell = p < 0.05): 121* %; Femur calcium versus control (%) (NMRI mice; [2]): 94* %; Serum calcium versus control (%) (NMRI mice; [2]): 136* %
CCC(O)(CC)CCC[C@H](C)[C@@]1(C)CC[C@@H](/C=C/C=C2C[C@@H](O)C[C@H](O)C2)C1(C)C [(1R,3R)-5-((E)-3-((1S,3R)-3-((1S)-5-ethyl-5-hydroxy-1-methylheptyl)-2,2,3-trimethylcyclopentyl)-2-propenylidene)cyclohexane-1,3-diol]	<0.1%	60%	–	–	–	–	–
C=C1/C(=C\C=C\[C@@H]2CC[C@](C)([C@H](C)CC#CC(C)(C)O)C2(C)C)C[C@@H](O)C[C@@H]1O [(1R,3S)-5-((Z,2E)-3-((1S,3R)-3-((1R)-5-hydroxy-1,5-dimethyl-3-hexynyl)-2,2,3-trimethylcyclopentyl)-2-propenylidene)-4-methylenecyclohexane-1,3-diol]	0%	60%	–	–	–	–	Serum calcium vs. control (%) (NMRI mice; dose 2 μg/kg/d i.p.): 105%; femur calcium vs. control (%) (NMRI mice; dose 2 μg/kg/d i.p., * in cell = P < 0.05): 113* %
C=C1/C(=C\C=C\[C@@H]2CC[C@](C)([C@H](C)CCCC(O)(C(F)(F)F)C(F)(F)F)C2(C)C)C[C@@H](O)C[C@@H]1O [(1R,3S)-5-((Z,2E)-3-((1S,3R)-3-((1R)-6,6,6-trifluoro-5-hydroxy-1-methyl-5-(trifluoromethyl)hexyl)-2,2,3-trimethylcyclopentyl)-2-propenylidene)-4-methylenecyclohexane-1,3-diol]	40%	30%	–	–	98%	114* %	–
C=C1/C(=C\C=C\[C@@H]2CC[C@](C)([C@H](C)CC#CC(O)(C(F)(F)F)C(F)(F)F)C2(C)C)C[C@@H](O)C[C@@H]1O [(1R,3S)-5-((Z,2E)-3-((1S,3R)-3-((1R)-6,6,6-trifluoro-5-hydroxy-1-methyl-5-trifluoromethyl-3-hexynyl)-2,2,3-trimethylcyclopentyl)-2-propenylidene)-4-methylenecyclohexane-1,3-diol]	0%	60%	–	–	94%	115* %	–
C=C1/C(=C\C=C\[C@@H]2CC[C@](C)([C@@H](C)CCCC(O)(C(F)(F)F)C(F)(F)F)C2(C)C)C[C@@H](O)C[C@@H]1O [(1R,3S)-5-((Z,2E)-3-((1S,3R)-3-((1S)-6,6,6-trifluoro-5-hydroxy-1-methyl-5-(trifluoromethyl)hexyl)-2,2,3-trimethylcyclopentyl)-2-propenylidene)-4-methylenecyclohexane-1,3-diol]	6%	60%	–	–	–	–	Serum calcium vs. control (%) (NMRI mice; dose 0.05 μg/kg/d i.p.): 106%; femur calcium vs. control (%) (NMRI mice; dose 0.05 μg/kg/d i.p., * in cell = P < 0.05): 112* %
C=C1/C(=C\C=C\[C@@H]2CC[C@](C)([C@@H](C)CC#CC(O)(C(F)(F)F)C(F)(F)F)C2(C)C)C[C@@H](O)C[C@@H]1O [(1R,3S)-5-((Z,2E)-3-((1S,3R)-3-((1S)-6,6,6-trifluoro-5-hydroxy-1-methyl-5-trifluoromethyl-3-hexynyl)-2,2,3-trimethylcyclopentyl)-2-propenylidene)-4-methylenecyclohexane-1,3-diol]	2%	75%	103%	117* %	–	–	–
C=C1/C(=C\C=C\[C@@H]2CC[C@](C)([C@@H](C)CC[C@@H](O)C(C)C)C2(C)C)C[C@@H](O)C[C@@H]1O [example 20, (1R,3S)-5-((Z,2E)-3-((1S,3R)-3-((1S,4R)-4-hydroxy-1,5-dimethylhexyl)-2,2,3-trimethylcyclopentyl)-2-propenylidene)-4-methylenecyclohexane-1,3-diol]	4%	9%	–	–	–	–	Serum calcium vs. control (%) (NMRI mice; dose 10 μg/kg/d i.p.): 99%; femur calcium vs. control (%) (NMRI mice; dose 10 μg/kg/d i.p., * in cell = P < 0.05): 111* %
C=C1/C(=C\C=C\[C@@H]2CC[C@](C)([C@@H](C)CC[C@H](O)C(C)C)C2(C)C)C[C@@H](O)C[C@@H]1O [example 24, (1R,3S)-5-((Z,2E)-3-((1S,3R)-3-((1S,4S)-4-hydroxy-1,5-dimethylhexyl)-2,2,3-trimethylcyclopentyl)-2-propenylidene)-4-methylenecyclohexane-1,3-diol]	4%	20%	98%	112* %	–	–	–
